Laboratory results reported in patent US20260344670A1, “BIXLOZONE MIXTURES WITH PETHOXAMID” (FMC CORPORATION, priority 2022, published 2026).

Key:
Type in all cases: in vivo
[1] = tested on: Abutilon theophrasti (ABUTH); test: pre-emergence control of ABUTH in corn (efficacy, Colby synergy)
Description: (§1) [formula] • where ppm=milligrams of active ingredient (=a.i.) per liter of spray mixture X=% action by component A using p ppm of active ingredient Y=% action by component B using q ppm of active ingredient. If the ratio R defined as the action actually observed (O) divided by the expected action (E) is >1 then the action of the combination is superadditive, i.e. there is a synergistic effect. For a more detailed description of the Colby formula, see Colby, S. R. “Calculating Synergistic and Antagonistic Responses of Herbicide Combination”, Weeds, Vol. 15, pages 20-22; 1967; see also Limpel et al., Proc. NEWCC 16:48-53 (1962).
(§2) As used herein, rating timings correspond to the following: A1=weed assessment at BBCH 11-12; A2=4 weeks after the application; A3=when ZEAMX crop reaches BBCH 18 (row closure); and A4=BBCH 51-59 of the ZEAMX crop.
(§3) The herbicidal compounds bixlozone and pethoxamid were applied in a variety of forms and at a variety of amounts, application rates, and normalities. Efficacy of the herbicidal compositions was evaluated with reference to a scale of 0% to 100% in comparison with untreated control plots. 0 means no damage to the harmful plants and 100 means complete destruction of the harmful plants. Plants per square meter is indicated by “pl/m^2”, and grams per hectare is indicated by “g/ha”. The acronym “EC” means emulsifiable concentrate (a liquid, homogenous formulation to be applied as an emulsion after dilution with water); “SC” means suspension concentrate (a stable suspension of active ingredient(s) with water as the fluid); “ZC” refers to a mixed formulation of CS and SC (a stable suspension of capsules and active ingredient(s) in a fluid, normally intended for dilution with water before use).
(§4) Various forms, compositions, and mixtures of bixlozone and pethoxamid were applied to corn before emergence. […] There was equivalent efficacy for fixed rate of bixlozone combined with pethoxamid: 1200 or 900 g/ha. Efficacy was reduced when bixlozone rate decreased from 250 to 150 g/ha. […]

[2] = tested on: Amaranthus retroflexus (AMARE); test: pre-emergence control of AMARE in corn (efficacy, Colby synergy)
Description: as §1, §2
(§5) The herbicidal compounds bixlozone and pethoxamid were applied in a variety of forms and at a variety of amounts, application rates, and normalities. Efficacy of the herbicidal compositions was evaluated with reference to a scale of 0% to 100% in comparison with untreated control plots. 0 means no damage to the harmful plants and 100 means complete destruction of the harmful plants. Plants per square meter is indicated by “pl/m^2”, and grams per hectare is indicated by “g/ha”. […]

[3] = tested on: Capsella bursa-pastoris (CAPBP); test: pre-emergence control of CAPBP in corn (efficacy, Colby synergy); settings: bixlozone 375, pethoxamid 800, tank mix 375 + 800, premix 375 + 775 g/ha
Description: as §1, §2, §5

[4] = tested on: Chenopodium album (CHEAL); test: pre-emergence control of CHEAL in corn (efficacy, Colby synergy)
Description: as §1, §2, §3, §4

[5] = tested on: Chenopodium hybridum (CHEHY); test: pre-emergence control of CHEHY in corn (efficacy, Colby synergy); settings: bixlozone 375, pethoxamid 300, mixtures 375 + 300 g/ha
Description: as §1, §2, §5

[6] = tested on: Convolvulus arvensis (CONAR); test: pre-emergence control of CONAR in corn (efficacy, Colby synergy); settings: bixlozone 375, pethoxamid 300, mixtures 375 + 300 g/ha
Description: as §1, §2, §5

[7] = tested on: Digitaria sanguinalis (DIGSA); test: pre-emergence control of DIGSA in corn (efficacy, Colby synergy); settings: bixlozone 375, pethoxamid 1200, mixtures 375 + 1200 g/ha
Description: as §1, §2, §5

[8] = tested on: Echinochloa crus-galli (ECHCG); test: pre-emergence control of ECHCG in corn (efficacy, Colby synergy)
Description: as §1, §2, §5

Lamium purpureum (LAMPU) = test: pre-emergence control of LAMPU in corn (efficacy, Colby synergy); settings: bixlozone 375, pethoxamid 300, mixtures 375 + 300 g/ha
Description: as §1, §2, §5

[9] = tested on: Matricaria chamomilla (MATCH); test: pre-emergence control of MATCH in corn (efficacy, Colby synergy)
Description: as §1, §2, §3, §4

[10] = tested on: Mercurialis annua (MERAN); test: pre-emergence control of MERAN in corn (efficacy, Colby synergy)
Description: as §1, §2, §3, §4

[11] = tested on: Fallopia convolvulus (POLCO); test: pre-emergence control of POLCO in corn (efficacy, Colby synergy)
Description: as §1, §2, §5

[12] = tested on: Persicaria lapathifolia (POLLA); test: pre-emergence control of POLLA in corn (efficacy, Colby synergy)
Description: as §1, §2, §3, §4

[13] = tested on: Persicaria maculosa (POLPE); test: pre-emergence control of POLPE in corn (efficacy, Colby synergy)
Description: as §1, §2, §3, §4

Senecio vulgaris (SENVU) = test: pre-emergence control of SENVU in corn (efficacy, Colby synergy); settings: bixlozone 375, pethoxamid 800, tank mix 375 + 800, premix 375 + 775 g/ha
Description: as §1, §2, §5

Setaria viridis (SETVI) = test: pre-emergence control of SETVI in corn (efficacy, Colby synergy)
Description: as §1, §2, §3, §4

[14] = bixlozone 375, pethoxamid 300, mixtures 375 + 300 g/ha
[15] = bixlozone 375, pethoxamid 800, tank mix 375 + 800, premix 375 + 775 g/ha
[16] = bixlozone 375, pethoxamid 1200, mixtures 375 + 1200 g/ha

Structure (SMILES): CCOCCN(C(=O)CCl)C(=C(C)C)c1ccccc1 [pethoxamid]
- Efficacy [1, 14]: 42.5
- Efficacy [1, 15]: 38.9
- Efficacy [1, 16]: 56.3
- Efficacy [2, 15]: 50.4
- Efficacy [2, 16]: 57.5
- Efficacy [3]: 99.3
- Efficacy [4, 14]: 35.7
- Efficacy [4, 15]: 66.6
- Efficacy [4, 16]: 72.2
- Efficacy [5]: 0
- Efficacy [6]: 39.6
- Efficacy [7]: 82
- Efficacy [8, 14]: 48.4
- Efficacy [8, 16]: 85.5
- Efficacy (Lamium purpureum (LAMPU)): 62.5
- Efficacy [9, 14]: 90
- Efficacy [9, 15]: 100
- Efficacy [9, 16]: 77.5
- Efficacy [10, 14]: 36.3
- Efficacy [10, 15]: 16.9
- Efficacy [10, 16]: 48.6
- Efficacy [11, 15]: 1.3
- Efficacy [11, 16]: 12.1
- Efficacy [12, 14]: 42.2
- Efficacy [12, 15]: 49.3
- Efficacy [12, 16]: 87.8
- Efficacy [13, 14]: 45.5
- Efficacy [13, 15]: 61.8
- Efficacy [13, 16]: 62.5
- Efficacy (Senecio vulgaris (SENVU)): 13.8
- Efficacy (Setaria viridis (SETVI); [14]): 30
- Efficacy (Setaria viridis (SETVI); [15]): 81
- Efficacy (Setaria viridis (SETVI); [16]): 52.1
